The values that follow come from patent publication US20070016970A1, “Guinea pig-chymase” (priority 2005, published 2007).

One may read the IC50 as the point on the concentration scale where inhibition reaches its midpoint.

Read-outs that look alike come from different tables or passages of the source.

One assay addresses T1, guinea pig chymase (Cavia porcellus, UniProt A7WPL7, G52S).
T1 construct: Thereby the mature guinea pig chymase with the correct N-terminus was formed; 26-amino acid N-terminal polypeptide with 6xHis tag and enterokinase cleavage site (N, cleaved yes); made in house
T1 sequence (A7WPL7 22-247 G52S): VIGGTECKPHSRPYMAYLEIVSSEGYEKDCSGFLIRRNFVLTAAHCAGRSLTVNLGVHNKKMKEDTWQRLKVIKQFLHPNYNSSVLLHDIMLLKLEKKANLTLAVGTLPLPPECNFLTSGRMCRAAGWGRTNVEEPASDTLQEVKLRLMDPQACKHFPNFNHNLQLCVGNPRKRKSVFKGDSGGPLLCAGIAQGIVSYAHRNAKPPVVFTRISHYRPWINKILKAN
The experiment in a line: Assay for chymase inhibition (fluorogenic AAPF-AMC substrate), guinea pig chymase. Type of assay: biochemical. The conditions noted are these: recombinant guinea pig chymase; 0.02 mM AAPF-substrate, 1 nM chymase, pH 7.4, 30 min pre-incubation, room temperature; read-out: Inhibition of guinea pig chymase activity, IC50, GP chymase.

The next assay deals with T2, Human Chymase coli (Homo sapiens, UniProt P23946).
T2 construct: Chymase purified from human skin mast cells was obtained from Calbiochem; purchased Calbiochem (Merck Biosciences, San Diego, Calif., USA); host or cells: human skin mast cells
T2 sequence (P23946 22-247): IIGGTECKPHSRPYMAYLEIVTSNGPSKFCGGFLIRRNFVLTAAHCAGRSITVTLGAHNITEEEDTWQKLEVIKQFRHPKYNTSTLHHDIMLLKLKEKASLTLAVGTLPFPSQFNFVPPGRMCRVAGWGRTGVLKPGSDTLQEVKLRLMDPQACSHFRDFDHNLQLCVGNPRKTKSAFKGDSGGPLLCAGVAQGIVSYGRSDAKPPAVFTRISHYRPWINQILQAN
Kind of assay: Assay for chymase inhibition (fluorogenic AAPF-AMC substrate), human chymase. Type of assay: biochemical. The protocol: The peptide was synthesized with a purity of 95% from Bachem, Bubendorf, Switzerland). Chymase purified from human skin mast cells was obtained from Calbiochem (Merck Biosciences, San Diego, Calif., USA). The assay buffer was 0.15 M NaCl, 0.05M, Tris HCl, 0.05% CHAPS, 0.1 mg/ml Heparin (Heparin sodium, Sigma, porcine intestinal mucosa), 0.02mM AAPF-substrate, 1 nM Chymase at pH 7.4. The assay was performed in 96-well plates (Packard Optiplate), with a 0.05 ml volume at room temperature. Chymase activity was indicated by the initial rate of increase in fluorescence at 340/440 nm (excitation/emission) from free 7-amino-4-methylcoumarin released from the substrate. Inhibition of the activity by inhibitory compounds was read after 30 min pre-incubation with the chymase at room temperature in assay buffer without AAPF-substrate. The assay was then started by addition of the indicated concentration of AAPF-substrate.

With `CC(=O)NCCc1c(C(c2ccccc2)c2c(O)c3ccccc3n(C)c2=O)[nH]c2ccccc12` (stereo not shown) [SF2809-V, N-(2-{2-[(4-Hydroxy-1-methyl-2-oxo-1,2-dihydro-quinolin-3-yl)-phenyl-methyl]-1H-indol-3-yl}-ethyl)-acetamide], the concentration for half-maximal inhibition (IC50) on guinea pig chymase was 940 nM; on Human Chymase coli (human chymase, 0.02 mM AAPF-substrate, 1 nM chymase, pH 7.4, 30 min pre-incubation, room temperature, read-out: Inhibition of chymase activity, IC50, Human Chymase coli) it was 570 nM.
For `COC(=O)c1ccc(NS(=O)(=O)c2sc3ccc(F)cc3c2C)c(S(C)(=O)=O)c1` [TY-51076, 4-(5-Fluoro-3-methyl-benzothiophene-2-sulfonylamino)-3-methanesulfonyl-benzoic acid methyl ester], the half-maximal inhibitory concentration (IC50) at guinea pig chymase stood at 345 nM; on Human Chymase coli, 590 nM.
